Data set [1] concerns the target ATP-dependent translocase ABCB1 (Homo sapiens, UniProt P08183). As to the kind of experiment: (§1) Inhibition of human Pgp-mediated DNR transport in NIH3T3 cells by microplate assay. Format: cell-based, Mus musculus. Particulars: read-out: Ki.
The next data set deals with P-gp (ABCB1) (Homo sapiens, UniProt P08183). The data set is described as §1. It counts as cell-based, Mus musculus. Particulars: mouse, NIH3T3 cells expressing human P-gp, probe DNR; read-out: Imax.
Chain of P-gp (ABCB1) (P08183 whole entry): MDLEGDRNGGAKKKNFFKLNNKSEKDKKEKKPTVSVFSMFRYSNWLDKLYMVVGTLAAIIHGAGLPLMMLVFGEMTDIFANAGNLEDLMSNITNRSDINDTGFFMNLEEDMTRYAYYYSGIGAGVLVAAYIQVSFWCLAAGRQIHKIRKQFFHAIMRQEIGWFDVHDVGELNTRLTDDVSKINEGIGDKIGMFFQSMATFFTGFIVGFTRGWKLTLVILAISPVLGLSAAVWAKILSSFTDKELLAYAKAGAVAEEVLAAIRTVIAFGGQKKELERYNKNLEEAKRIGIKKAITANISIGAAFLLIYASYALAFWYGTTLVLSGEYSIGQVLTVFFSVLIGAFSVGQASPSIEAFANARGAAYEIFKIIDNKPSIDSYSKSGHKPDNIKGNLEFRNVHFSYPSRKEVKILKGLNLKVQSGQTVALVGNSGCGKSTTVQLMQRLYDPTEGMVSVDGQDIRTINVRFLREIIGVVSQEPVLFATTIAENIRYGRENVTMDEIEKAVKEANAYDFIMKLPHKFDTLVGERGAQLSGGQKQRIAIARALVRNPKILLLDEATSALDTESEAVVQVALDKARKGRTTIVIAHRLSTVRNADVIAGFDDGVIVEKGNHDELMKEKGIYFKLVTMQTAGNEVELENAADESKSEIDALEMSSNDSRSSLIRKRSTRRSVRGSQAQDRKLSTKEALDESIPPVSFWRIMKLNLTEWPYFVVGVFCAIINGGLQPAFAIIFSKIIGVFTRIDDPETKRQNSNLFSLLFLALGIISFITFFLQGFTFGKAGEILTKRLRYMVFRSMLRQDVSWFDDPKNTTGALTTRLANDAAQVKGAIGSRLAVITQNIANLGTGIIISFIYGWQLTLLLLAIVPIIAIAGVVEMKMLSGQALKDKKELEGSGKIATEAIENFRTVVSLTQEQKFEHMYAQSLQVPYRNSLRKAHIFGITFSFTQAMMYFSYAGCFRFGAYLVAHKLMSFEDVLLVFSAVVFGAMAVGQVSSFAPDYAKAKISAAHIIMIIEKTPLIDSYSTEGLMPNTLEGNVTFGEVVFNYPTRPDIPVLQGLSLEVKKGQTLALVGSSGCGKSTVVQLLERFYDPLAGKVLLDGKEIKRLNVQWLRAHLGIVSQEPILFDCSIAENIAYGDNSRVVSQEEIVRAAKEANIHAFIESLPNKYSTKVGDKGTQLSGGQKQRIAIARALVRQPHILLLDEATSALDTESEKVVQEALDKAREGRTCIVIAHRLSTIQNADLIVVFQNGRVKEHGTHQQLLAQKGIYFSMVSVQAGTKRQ
Data set [2] is described as follows: Partition coefficient, log P of the compound. It counts as physicochemical. As to conditions: octanol/water.

The source of these data is ChEMBL document CHEMBL1148809, “Biological evaluation, structure-activity relationships, and three-dimensional quantitative structure-activity relationship studies of dihydro-beta-agarofuran sesquiterpenes as modulators of P-glycoprotein-dependent multidrug resistance” (J Med Chem, 2007).

Chain of ATP-dependent translocase ABCB1 (P08183 whole entry): as above

What is called Ki is a measure of affinity in units of concentration, obtained from inhibition or displacement. As a reminder, the logP is the decadic logarithm of the partition coefficient of the neutral form, usually between octanol and water. Take `CCCCCO[C@H]1C[C@@](C)(O)[C@]23OC(C)(C)[C@H](C[C@H](OC(=O)c4ccco4)[C@]2(C)[C@H]1OC(C)=O)[C@H]3OC(=O)c1ccco1`: the Ki in data set [1] amounted to 0.57 µM. In addition, the Emax at P-gp (ABCB1) was determined as 95.5%. The logP in data set [2] (read-out: LogP) is 6.6.

As for `CC(=O)O[C@H]1[C@@H](OC(=O)c2cccnc2)C[C@@](C)(O)[C@]23OC(C)(C)[C@H](C[C@H](OC(=O)c4ccco4)[C@]12C)[C@H]3OC(=O)c1ccco1`, in data set [1], the Ki came out at 7.42 µM. For the same molecule, the Emax at P-gp (ABCB1) amounted to 100%. Further, in data set [2] (read-out: LogP), the logP came to 6.1.

For the molecule `CC(=O)O[C@H]1[C@@H](OC(=O)c2ccccc2)C[C@@](C)(O)[C@]23OC(C)(C)[C@H](C[C@H](OC(=O)c4ccco4)[C@]12C)[C@H]3O`, the Ki in data set [1] came to 2.5 µM. Besides, the Emax on P-gp (ABCB1) was 68%. Besides, the logP in data set [2] (read-out: LogP) was 5.7.

As for `CC(=O)O[C@H]1C[C@@](C)(O)[C@]23OC(C)(C)[C@H](C[C@H](OC(=O)c4ccco4)[C@]2(C)[C@H]1OC(C)=O)[C@H]3O`, the Ki in data set [1] turned out to be 17.5 µM. For the same molecule, the Emax on P-gp (ABCB1) is 100%. Moreover, the logP in data set [2] (read-out: LogP) was 3.4.

For `CC(=O)O[C@@H]1[C@H]2C[C@H](OC(=O)c3ccco3)[C@]3(C)[C@@H](OC(C)=O)[C@@H](OC(=O)c4ccco4)C[C@@](C)(O)[C@@]13OC2(C)C`, in data set [1], the Ki turned out to be 4.13 µM. Moreover, the Emax at P-gp (ABCB1) was 61.7%. The logP in data set [2] (read-out: LogP) came to 5.1.

On to `CC(=O)O[C@H]1CC[C@@](C)(O)[C@]23OC(C)(C)[C@H](C[C@H](OC(=O)c4ccco4)[C@]12C)[C@H]3OC(=O)c1ccco1`, for which the Ki in data set [1] was found to be 6.61 µM. In addition, the Emax on P-gp (ABCB1) came out at 96.3%. In addition, the logP in data set [2] (read-out: LogP) turned out to be 5.3.

Regarding `CC(=O)OC[C@]12[C@H](OC(C)=O)C(=O)[C@@H]3[C@@H](O)[C@]1(OC3(C)C)[C@](C)(O)C[C@H](OC(C)=O)[C@@H]2OC(C)=O`, the inhibitory constant (Ki) in data set [1] was 7.65 µM. For the same molecule, the Emax on P-gp (ABCB1) came out at 39%. Moreover, the logP in data set [2] (read-out: LogP) amounted to 3.3.

For the molecule `CC(=O)O[C@H]1[C@@H](O)C[C@@](C)(O)[C@]23OC(C)(C)[C@H](C[C@H](OC(=O)c4ccco4)[C@]12C)[C@H]3OC(=O)c1ccco1`, in data set [1], the Ki amounted to 4.16 µM. The Emax at P-gp (ABCB1) was 51.8%. The logP in data set [2] (read-out: LogP) was determined as 4.3.

Turning to `CC(=O)O[C@H]1[C@@H](OC(=O)c2ccco2)C[C@@](C)(O)[C@]23OC(C)(C)[C@H](C[C@H](OC(=O)c4ccco4)[C@]12C)[C@H]3O`, the Ki in data set [1] stood at 5.53 µM. Besides, on P-gp (ABCB1), the Emax is 41.2%. Besides, the logP in data set [2] (read-out: LogP) is 4.7.

For the molecule `CC(=O)O[C@H]1C[C@@](C)(O)[C@]23OC(C)(C)[C@H](C[C@H](OC(=O)c4ccco4)[C@]2(C)[C@H]1OC(C)=O)[C@H]3OC(=O)C(F)(F)F`, the inhibition constant Ki in data set [1] came out at 12.1 µM. The Emax at P-gp (ABCB1) is 34%. In addition, the lipophilicity (logP) in data set [2] (read-out: LogP) is 4.1.

Regarding `CC(=O)O[C@H]1C[C@@](C)(O)[C@]23OC(C)(C)[C@H](C[C@H](OC(=O)c4ccco4)[C@]2(C)[C@H]1O)[C@H]3OC(=O)c1ccco1`, the Ki in data set [1] is 100 µM. For the same molecule, the Emax at P-gp (ABCB1) is 100%. Moreover, the logP in data set [2] (read-out: LogP) was determined as 4.3.

As for `CC(=O)O[C@@H]1[C@H]2C[C@H](OC(=O)c3ccco3)[C@]3(C)[C@@H](OC(C)=O)[C@@H](OC(=O)c4ccccc4)C[C@@](C)(O)[C@@]13OC2(C)C`, the Ki in data set [1] is 2.92 µM. Further, on P-gp (ABCB1), the Emax stood at 92.7%. The logP in data set [2] (read-out: LogP) is 6.1.

Take `CCCCCCCCCCCC(=O)O[C@@H]1[C@H]2C[C@H](OC(=O)c3ccco3)[C@]3(C)[C@@H](OC(C)=O)[C@@H](OC(C)=O)C[C@@](C)(O)[C@@]13OC2(C)C`: the Ki in data set [1] amounted to 0.8 µM. At P-gp (ABCB1), the Emax is 72.7%. Also, the logP in data set [2] was found to be 9.1.

Take `CC(=O)O[C@H]1C[C@@](C)(O)[C@]23OC(C)(C)[C@H](C[C@H](OC(=O)c4ccco4)[C@]2(C)[C@H]1OC(C)=O)[C@H]3OC(=O)c1cccc2ccccc12`: the inhibition constant (Ki) in data set [1] stood at 1.65 µM. Moreover, on P-gp (ABCB1), the Emax turned out to be 91.1%. Moreover, the logP in data set [2] (read-out: LogP) turned out to be 7.3.

For the molecule `CCCO[C@H]1C[C@@](C)(O)[C@]23OC(C)(C)[C@H](C[C@H](OC(=O)c4ccco4)[C@]2(C)[C@H]1OC(C)=O)[C@H]3OC(=O)c1ccco1`, the Ki in data set [1] came out at 1.13 µM. In addition, the Emax on P-gp (ABCB1) turned out to be 100%. Moreover, in data set [2] (read-out: LogP), the logP stood at 6.2.

Regarding `CC(=O)O[C@H]1C[C@@](C)(O)[C@]23OC(C)(C)[C@H](C[C@H](OC(=O)c4ccco4)[C@]2(C)[C@H]1OC(=O)c1ccccc1)[C@H]3OC(=O)c1ccco1`, the Ki in data set [1] amounted to 3.45 µM. At P-gp (ABCB1), the Emax was 45.3%. The logP in data set [2] (read-out: LogP) amounted to 7.2.

On to `CC(=O)O[C@H]1C[C@@](C)(O)[C@]23OC(C)(C)[C@H](C[C@H](OC(=O)c4ccco4)[C@]2(C)[C@H]1OC(C)=O)[C@H]3OC(=O)C(C)(C)C`, for which, in data set [1], the Ki turned out to be 0.96 µM. At P-gp (ABCB1), the Emax came to 75.2%. Also, the logP in data set [2] (read-out: LogP) is 5.

Turning to `CC(=O)O[C@H]1C[C@@](C)(O)[C@]23OC(C)(C)[C@H](C[C@H](OC(=O)c4ccco4)[C@]2(C)[C@H]1OC(C)=O)[C@H]3OC(=O)c1ccccc1`, in data set [1], the Ki was found to be 8.94 µM. Also, the Emax at P-gp (ABCB1) turned out to be 67.9%. Besides, in data set [2] (read-out: LogP), the logP is 6.1.

Consider `CC(=O)O[C@H]1[C@@H](OC(=O)c2ccccc2)C[C@@](C)(O)[C@]23OC(C)(C)[C@H](C[C@H](OC(=O)c4ccco4)[C@]12C)[C@H]3OC(=O)c1ccco1`, for which the Ki in data set [1] is 0.7 µM. The Emax at P-gp (ABCB1) is 93.1%. Besides, the logP in data set [2] (read-out: LogP) worked out at 7.1.

For `CC(=O)O[C@H]1C[C@@](C)(O)[C@]23OC(C)(C)[C@H](C[C@H](OC(=O)c4ccco4)[C@]2(C)[C@H]1OC(C)=O)[C@H]3OC(=O)c1ccco1`, the Ki in data set [1] was determined as 2.91 µM. Moreover, the Emax at P-gp (ABCB1) worked out at 95.7%. The logP in data set [2] (read-out: LogP) amounted to 5.1.

For the molecule `CCCCCCCCCCCC(=O)O[C@@H]1[C@H]2C[C@H](OC(=O)c3ccco3)[C@]3(C)[C@@H](OC(C)=O)[C@@H](OC(=O)c4ccccc4)C[C@@](C)(O)[C@@]13OC2(C)C`, the Ki in data set [1] was determined as 5.16 µM. For the same molecule, the Emax at P-gp (ABCB1) turned out to be 29.2%. In data set [2], this molecule returned a lipophilicity (logP) of 11.4.
